For one test, the target named is Large T antigen (Simian virus 40, UniProt P03070). The test is classed as functional, Betapolyomavirus macacae.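 Note: Confirmatory-stage PubChem screen for compounds that inhibit SV40 T antigen.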
A further test deals with NS3 (Hepatitis C virus, UniProt A3EZJ3). The experiment in a line: PubChem AID 2173. On the set-up: species or system Hepacivirus hominis.
The nature of test [1]: A Cell Based Secondary Assay To Explore Cytotoxicity of Compounds that Sensitize Mycobacterium Tuberculosis to Beta-Lactam Antibiotics. The test is classed as functional.
The target of test [2] is Transitional endoplasmic reticulum ATPase (Homo sapiens, UniProt P55072, C522A). The test can be described thus: C522A mutant p97 ATPase inhibitors, dose response, counter-screen for p97 inhibitor project, biochemical, luminescence (AID 1544).
Chain of Transitional endoplasmic reticulum ATPase (Homo sapiens, UniProt P55072, C522A) (P55072 2-806 C522A limits assumed): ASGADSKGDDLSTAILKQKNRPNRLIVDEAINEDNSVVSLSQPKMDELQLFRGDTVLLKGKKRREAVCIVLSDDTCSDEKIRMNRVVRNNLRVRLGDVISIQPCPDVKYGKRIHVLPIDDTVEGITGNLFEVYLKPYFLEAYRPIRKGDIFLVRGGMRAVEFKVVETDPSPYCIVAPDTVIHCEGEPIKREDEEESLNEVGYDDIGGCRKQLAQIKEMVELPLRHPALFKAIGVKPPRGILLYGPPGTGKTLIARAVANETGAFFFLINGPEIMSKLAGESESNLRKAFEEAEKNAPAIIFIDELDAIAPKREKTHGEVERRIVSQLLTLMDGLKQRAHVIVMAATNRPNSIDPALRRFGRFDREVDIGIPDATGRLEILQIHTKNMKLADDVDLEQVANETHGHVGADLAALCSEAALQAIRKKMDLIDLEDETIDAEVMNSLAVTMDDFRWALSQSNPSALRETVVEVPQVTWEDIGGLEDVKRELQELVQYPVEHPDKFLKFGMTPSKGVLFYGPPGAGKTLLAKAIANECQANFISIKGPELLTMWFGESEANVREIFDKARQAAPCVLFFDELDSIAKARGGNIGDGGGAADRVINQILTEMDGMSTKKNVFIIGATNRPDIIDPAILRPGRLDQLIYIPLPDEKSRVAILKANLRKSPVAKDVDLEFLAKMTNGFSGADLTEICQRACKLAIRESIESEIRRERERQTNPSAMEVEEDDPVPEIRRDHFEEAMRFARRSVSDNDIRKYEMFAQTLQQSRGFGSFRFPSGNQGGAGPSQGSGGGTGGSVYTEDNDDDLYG
Test [3] addresses Transitional endoplasmic reticulum ATPase (Homo sapiens, UniProt P55072). The experiment in a line: p97 ATPase inhibitors, dose response, biochemical (AID 1534).
Test [4] addresses T1, Rac GTPase-activating protein 1 (Homo sapiens, UniProt Q9H0H5).
T1 sequence (Q9H0H5 whole entry): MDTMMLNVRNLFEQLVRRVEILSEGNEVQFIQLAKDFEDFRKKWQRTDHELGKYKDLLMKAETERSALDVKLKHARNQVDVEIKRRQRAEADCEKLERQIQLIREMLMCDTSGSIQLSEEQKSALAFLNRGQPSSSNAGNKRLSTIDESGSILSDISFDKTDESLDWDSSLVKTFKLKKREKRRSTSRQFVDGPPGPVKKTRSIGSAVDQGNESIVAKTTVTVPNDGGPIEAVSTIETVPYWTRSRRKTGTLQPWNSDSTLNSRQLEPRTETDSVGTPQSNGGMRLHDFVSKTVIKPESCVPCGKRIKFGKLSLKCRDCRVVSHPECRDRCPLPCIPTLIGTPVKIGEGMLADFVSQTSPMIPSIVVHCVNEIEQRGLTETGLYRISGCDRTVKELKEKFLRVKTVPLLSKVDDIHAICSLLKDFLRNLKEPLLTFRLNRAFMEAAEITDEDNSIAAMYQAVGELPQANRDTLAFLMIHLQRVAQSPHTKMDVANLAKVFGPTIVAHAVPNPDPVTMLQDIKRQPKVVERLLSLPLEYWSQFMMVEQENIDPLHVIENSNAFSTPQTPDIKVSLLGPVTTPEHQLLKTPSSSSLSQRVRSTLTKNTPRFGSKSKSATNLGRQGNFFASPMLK
The test can be described thus: blockers of MgcRacGAP-driven Rac1 GTP hydrolysis – biochemical, ADP Hunter fluorescence, primary and confirmatory, confirmation (AID 624330). Format: functional.

Test [5] in a line: Counterscreen for IDE inhibitors: Luminescence-based cell-based high throughput dose response assay to identify compounds that are cytotoxic to HEK cells. [Related pubchem assays: 434962 (Primary screen (IDE inhibitors in singlicate)), 449730 (Counterscreen (Cytotoxicity in triplicate)), 435028 (Confirmation (IDE inhibitors in triplicate)) …. The test is classed as functional. The note with it: HEK293.

The next test concerns the target T2, Insulin-degrading enzyme (Homo sapiens, UniProt P14735).
T2 sequence (P14735 whole entry): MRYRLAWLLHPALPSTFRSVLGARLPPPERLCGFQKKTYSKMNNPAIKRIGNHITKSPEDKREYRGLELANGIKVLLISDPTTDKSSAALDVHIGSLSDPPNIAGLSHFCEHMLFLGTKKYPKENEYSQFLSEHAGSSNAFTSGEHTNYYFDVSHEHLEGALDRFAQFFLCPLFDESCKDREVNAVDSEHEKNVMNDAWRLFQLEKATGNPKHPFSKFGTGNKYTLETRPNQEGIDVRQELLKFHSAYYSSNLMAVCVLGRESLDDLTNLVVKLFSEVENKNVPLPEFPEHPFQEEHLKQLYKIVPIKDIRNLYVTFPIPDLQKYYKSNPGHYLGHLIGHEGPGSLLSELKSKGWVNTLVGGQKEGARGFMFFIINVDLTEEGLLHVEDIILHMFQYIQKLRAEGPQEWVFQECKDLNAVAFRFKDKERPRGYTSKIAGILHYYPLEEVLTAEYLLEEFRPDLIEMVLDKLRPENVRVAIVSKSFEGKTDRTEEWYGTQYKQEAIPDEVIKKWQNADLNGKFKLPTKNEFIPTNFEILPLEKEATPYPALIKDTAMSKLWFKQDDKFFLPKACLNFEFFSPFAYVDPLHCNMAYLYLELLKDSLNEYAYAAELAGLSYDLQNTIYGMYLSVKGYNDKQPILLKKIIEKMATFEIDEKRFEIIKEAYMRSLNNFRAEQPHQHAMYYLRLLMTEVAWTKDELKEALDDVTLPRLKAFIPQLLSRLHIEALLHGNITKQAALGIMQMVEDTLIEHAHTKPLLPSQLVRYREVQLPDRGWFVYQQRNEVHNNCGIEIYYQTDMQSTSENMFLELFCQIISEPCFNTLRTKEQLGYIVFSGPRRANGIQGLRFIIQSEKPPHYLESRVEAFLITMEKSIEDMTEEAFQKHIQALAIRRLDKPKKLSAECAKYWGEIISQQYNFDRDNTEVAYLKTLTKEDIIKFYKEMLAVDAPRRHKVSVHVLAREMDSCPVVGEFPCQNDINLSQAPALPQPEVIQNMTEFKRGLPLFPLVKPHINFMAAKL
The test can be described thus: Dose Response: Fluorescence polarization-based cell-based high throughput dose response assay for inhibitors of insulin-degrading enzyme (IDE). [Related pubchem assays: 434962 (Primary screen (IDE inhibitors in singlicate)), 449730 (Counterscreen (Cytotoxicity in triplicate)), 435028 (Confirmation (IDE inhibitors in triplicate)), 434984 (Summary …. Format: functional.

Test [6] is described as follows: mitochondrial function rescue without frataxin homolog – Friedreich's ataxia, plus single-dose screen, dose response (AID 1465).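 Note: yeast depleted of Yfh1p frataxin homolog grown on glycerol needing respiration; WST-1 tetrazolium dye reduction as measure of cellular dehydrogenase metabolic activity.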 Format: functional.
The target in another test is T3, Protein skinhead-1 (Caenorhabditis elegans, UniProt P34707).
T3 sequence (P34707 whole entry): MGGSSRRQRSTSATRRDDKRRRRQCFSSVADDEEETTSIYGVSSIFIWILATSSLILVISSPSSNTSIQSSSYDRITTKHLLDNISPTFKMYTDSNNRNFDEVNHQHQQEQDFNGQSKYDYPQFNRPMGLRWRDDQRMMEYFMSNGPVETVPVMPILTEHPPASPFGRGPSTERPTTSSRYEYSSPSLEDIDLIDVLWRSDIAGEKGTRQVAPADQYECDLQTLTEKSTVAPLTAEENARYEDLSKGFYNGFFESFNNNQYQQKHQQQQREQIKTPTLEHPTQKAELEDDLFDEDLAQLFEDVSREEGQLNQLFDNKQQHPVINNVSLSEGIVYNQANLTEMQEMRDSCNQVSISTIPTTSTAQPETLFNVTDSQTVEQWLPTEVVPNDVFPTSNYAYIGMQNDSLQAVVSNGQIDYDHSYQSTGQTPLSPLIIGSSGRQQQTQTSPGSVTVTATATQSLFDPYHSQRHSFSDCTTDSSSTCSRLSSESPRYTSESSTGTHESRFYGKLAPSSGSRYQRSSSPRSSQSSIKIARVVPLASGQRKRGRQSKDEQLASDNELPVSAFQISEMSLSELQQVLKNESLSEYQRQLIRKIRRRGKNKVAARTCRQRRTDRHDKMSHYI
The test is classed as functional.

SMILES strings stand for the structures. Active and inactive are the calls of the source.

Chain of Large T antigen (P03070 whole entry): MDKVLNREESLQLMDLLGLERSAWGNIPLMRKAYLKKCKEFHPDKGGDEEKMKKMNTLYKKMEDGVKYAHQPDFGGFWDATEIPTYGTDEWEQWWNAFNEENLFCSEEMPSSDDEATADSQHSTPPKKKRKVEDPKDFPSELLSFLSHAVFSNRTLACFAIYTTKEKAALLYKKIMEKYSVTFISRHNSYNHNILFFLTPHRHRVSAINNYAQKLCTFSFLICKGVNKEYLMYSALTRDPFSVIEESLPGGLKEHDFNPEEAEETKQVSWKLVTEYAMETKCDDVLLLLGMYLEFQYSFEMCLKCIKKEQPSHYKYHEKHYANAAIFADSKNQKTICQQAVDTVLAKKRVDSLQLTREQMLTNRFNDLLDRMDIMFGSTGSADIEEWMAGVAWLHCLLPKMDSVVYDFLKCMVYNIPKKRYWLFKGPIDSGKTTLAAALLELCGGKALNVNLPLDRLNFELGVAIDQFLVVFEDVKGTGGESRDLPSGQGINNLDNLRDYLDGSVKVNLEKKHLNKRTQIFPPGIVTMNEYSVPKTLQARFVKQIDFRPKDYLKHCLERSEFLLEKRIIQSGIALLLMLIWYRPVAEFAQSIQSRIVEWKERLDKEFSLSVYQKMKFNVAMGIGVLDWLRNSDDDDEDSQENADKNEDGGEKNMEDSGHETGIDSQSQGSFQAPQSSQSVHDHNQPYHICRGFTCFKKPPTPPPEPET
Chain of NS3 (A3EZJ3 whole entry): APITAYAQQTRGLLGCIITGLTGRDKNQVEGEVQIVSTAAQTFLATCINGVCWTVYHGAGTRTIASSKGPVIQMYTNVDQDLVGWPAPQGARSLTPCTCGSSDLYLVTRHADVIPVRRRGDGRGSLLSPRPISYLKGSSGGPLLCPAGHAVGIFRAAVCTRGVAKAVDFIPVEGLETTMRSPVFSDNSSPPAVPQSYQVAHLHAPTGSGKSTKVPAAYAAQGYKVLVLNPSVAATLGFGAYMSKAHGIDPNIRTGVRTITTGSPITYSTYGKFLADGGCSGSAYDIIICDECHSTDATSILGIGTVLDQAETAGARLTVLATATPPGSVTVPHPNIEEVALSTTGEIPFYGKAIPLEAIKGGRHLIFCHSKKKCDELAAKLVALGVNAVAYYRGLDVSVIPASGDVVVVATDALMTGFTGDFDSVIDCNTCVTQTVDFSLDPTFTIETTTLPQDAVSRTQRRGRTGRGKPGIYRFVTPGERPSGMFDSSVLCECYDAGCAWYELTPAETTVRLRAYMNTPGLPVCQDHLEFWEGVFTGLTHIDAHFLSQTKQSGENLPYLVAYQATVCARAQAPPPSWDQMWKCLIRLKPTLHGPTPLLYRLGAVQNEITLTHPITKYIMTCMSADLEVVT
Chain of Transitional endoplasmic reticulum ATPase (Homo sapiens, UniProt P55072) (P55072 whole entry): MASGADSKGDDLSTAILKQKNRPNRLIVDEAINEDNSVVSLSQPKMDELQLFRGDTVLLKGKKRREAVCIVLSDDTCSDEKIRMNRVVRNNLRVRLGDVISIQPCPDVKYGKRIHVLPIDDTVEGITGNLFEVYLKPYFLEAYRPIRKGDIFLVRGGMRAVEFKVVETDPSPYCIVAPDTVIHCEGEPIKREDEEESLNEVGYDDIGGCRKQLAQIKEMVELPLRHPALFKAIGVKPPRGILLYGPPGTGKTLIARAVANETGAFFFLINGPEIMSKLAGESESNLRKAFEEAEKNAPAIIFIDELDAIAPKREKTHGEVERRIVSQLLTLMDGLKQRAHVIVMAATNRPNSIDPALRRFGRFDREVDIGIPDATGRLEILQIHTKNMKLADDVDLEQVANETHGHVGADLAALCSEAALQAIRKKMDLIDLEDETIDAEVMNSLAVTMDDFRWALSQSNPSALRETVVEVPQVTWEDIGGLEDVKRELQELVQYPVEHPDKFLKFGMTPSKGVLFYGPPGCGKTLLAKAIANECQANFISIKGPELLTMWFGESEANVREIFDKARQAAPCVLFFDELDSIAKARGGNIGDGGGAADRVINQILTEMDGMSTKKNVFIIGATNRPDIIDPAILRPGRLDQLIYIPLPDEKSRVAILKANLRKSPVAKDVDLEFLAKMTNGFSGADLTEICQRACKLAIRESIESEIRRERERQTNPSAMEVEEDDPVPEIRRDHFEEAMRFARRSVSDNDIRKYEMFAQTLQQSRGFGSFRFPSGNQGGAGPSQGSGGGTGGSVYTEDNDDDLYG

With `O=C1NC(=O)N(c2ccccc2)C(=O)/C1=C\c1ccc([N+](=O)[O-])s1`, the results for the IC50 at Large T antigen and at NS3 were 42.1 µM (active) and 15.7 µM (not active), respectively.

In the case of `CCOc1ccc(/C=N/NC(=O)c2ccccc2O)cc1CN1CC2CC(C1)c1cccc(=O)n1C2` (stereo not given), the CC50 in test [1] was 23 µM (active).

`COc1ccc2ccccc2c1/C=N/NC(=O)c1sc(N)c(C#N)c1C`: the IC50 was > 50 µM (not active) in test [2] and 2.58 µM (active) in test [3].

`Cc1c(N2C(=O)/C(=C\c3ccc(N(C)C)cc3)N(C)C2=S)c(=O)n(-c2ccccc2)n1C`: the half-inhibitory concentration (IC50) was 74.4 µM (active) in [4], 37.9 µM (not active) in [5], 13.9 µM (not active) on Insulin-degrading enzyme and 57.2 µM (inactive) on Protein skinhead-1. The EC50 in test [6] was > 100 µM (active).

Source of the values: ChEMBL document CHEMBL1201862, “PubChem BioAssay data set” (2004).
